The source made the active and inactive calls. No cut-off for these calls is given here.
Tested on: L1210
Assay: Percent inhibition at a concentration 10 E -4 against L1210 leukemia cells; Inactive
Assay type: functional, cell-based
Conditions: Mus musculus

SMILES | inhibition
CSc1nn(C2O[C@H](CO)[C@@H](O)[C@H]2O)c2nc[nH]c(=O)c12 (stereo not given in full) | inactive
Nc1nn(C2O[C@H](CO)[C@@H](O)[C@H]2O)c2nc[nH]c(=O)c12 (stereo not given in full) | inactive

Tested on: Vero
Assay: Virus rating was determined by comparing cytopathic effect against vero cells after infection with Herpes simplex virus-1
Assay type: functional, Chlorocebus sabaeus
Conditions: not given

SMILES | Virus rating
Nc1ncnc2c1c(Br)nn2C1O[C@H](CO)[C@@H](O)[C@H]1O (stereo not given in full) | 0.4
O=c1[nH]cnc2c1c(Br)nn2C1O[C@H](CO)[C@@H](O)[C@H]1O (stereo not given in full) | 0.2
O=c1[nH]cnc2c1cnn2[C@@H]1O[C@H](CO)[C@@H](O)[C@H]1O | 0
CSc1nn(C2O[C@H](CO)[C@@H](O)[C@H]2O)c2nc[nH]c(=O)c12 (stereo not given in full) | 0.16
N#Cc1nn(C2O[C@H](CO)[C@@H](O)[C@H]2O)c2nc[nH]c(=O)c12 (stereo not given in full) | 0.25
Nc1nn(C2O[C@H](CO)[C@@H](O)[C@H]2O)c2nc[nH]c(=O)c12 (stereo not given in full) | 0.15
Nc1ncnc2c1c(N)nn2C1O[C@H](CO)[C@@H](O)[C@H]1O (stereo not given in full) | 1.3

Tested on: not listed separately
Assay: Toxic level was determined
Assay type: ADME
Conditions: not given

SMILES | Toxic level [mM]
Nc1ncnc2c1c(Br)nn2C1O[C@H](CO)[C@@H](O)[C@H]1O (stereo not given in full) | 0.5
O=c1[nH]cnc2c1c(Br)nn2C1O[C@H](CO)[C@@H](O)[C@H]1O (stereo not given in full) | 5
CSc1nn(C2O[C@H](CO)[C@@H](O)[C@H]2O)c2nc[nH]c(=O)c12 (stereo not given in full) | 5
Nc1nn(C2O[C@H](CO)[C@@H](O)[C@H]2O)c2nc[nH]c(=O)c12 (stereo not given in full) | 5

Tested on: P388
Assay: Inhibition at a concentration 10 E -4 against P388 lymphoid neoplasm cells; Inactive
Assay type: functional, cell-based
Conditions: Mus musculus

SMILES | ID50
Nc1ncnc2c1c(N)nn2C1O[C@H](CO)[C@@H](O)[C@H]1O (stereo not given in full) | inactive

Tested on: Leishmania tropica
Assay: Concentration in the culture media that produced 50% inhibition of the leishmania tropica growth; Range is 76-190
Assay type: functional
Conditions: read-out: ED50 (the source's name)

SMILES | EC50 [µM]
O=c1[nH]cnc2c1cnn2[C@@H]1O[C@H](CO)[C@@H](O)[C@H]1O | 76

Tested on: Leishmania tropica
Assay: Concentration in the culture media that produced 50% inhibition of the leishmania tropica growth
Assay type: functional
Conditions: read-out: ED50 (the source's name)

SMILES | EC50 [µM]
OC[C@H]1OC(n2ncc3c(S)ncnc32)[C@H](O)[C@@H]1O (stereo not given in full) | 72
Nc1nn(C2O[C@H](CO)[C@@H](O)[C@H]2O)c2nc[nH]c(=O)c12 (stereo not given in full) | > 177

Same assay, conditions: read-out: ID50 (the source's name)

SMILES | IC50 [µM]
O=c1[nH]cnc2c1c(Br)nn2C1O[C@H](CO)[C@@H](O)[C@H]1O (stereo not given in full) | > 15

Tested on: B16
Assay: 50% inhibition of the tumor cell growth as compared to the untreated controls against B16 melanoma cells; Inactive
Assay type: functional, cell-based
Conditions: Mus musculus

SMILES | ID50
Nc1nn(C2O[C@H](CO)[C@@H](O)[C@H]2O)c2nc[nH]c(=O)c12 (stereo not given in full) | inactive

Tested on: L1210
Assay: Percent inhibition at a concentration 10 E -4 against L1210 leukemia cells
Assay type: functional, Mus musculus
Conditions: not given

SMILES | Inhibition [%]
Nc1ncnc2c1c(Br)nn2C1O[C@H](CO)[C@@H](O)[C@H]1O (stereo not given in full) | 28
O=c1[nH]cnc2c1c(Br)nn2C1O[C@H](CO)[C@@H](O)[C@H]1O (stereo not given in full) | 25

Tested on: P388
Assay: Percent inhibition at a concentration 10 E -4 against P388 lymphoid neoplasm cells; Inactive
Assay type: functional, cell-based
Conditions: Mus musculus

SMILES | inhibition
Nc1ncnc2c1c(Br)nn2C1O[C@H](CO)[C@@H](O)[C@H]1O (stereo not given in full) | inactive
Nc1nn(C2O[C@H](CO)[C@@H](O)[C@H]2O)c2nc[nH]c(=O)c12 (stereo not given in full) | inactive

Tested on: Vero
Assay: Virus rating was determined by comparing cytopathic effect against vero cells after infection with Parainfluenza type 3 (para 3)
Assay type: functional, Chlorocebus sabaeus
Conditions: not given

SMILES | Virus rating
Nc1ncnc2c1c(Br)nn2C1O[C@H](CO)[C@@H](O)[C@H]1O (stereo not given in full) | 0.2
O=c1[nH]cnc2c1c(Br)nn2C1O[C@H](CO)[C@@H](O)[C@H]1O (stereo not given in full) | 0.03
O=c1[nH]cnc2c1cnn2[C@@H]1O[C@H](CO)[C@@H](O)[C@H]1O | 0.2
CSc1nn(C2O[C@H](CO)[C@@H](O)[C@H]2O)c2nc[nH]c(=O)c12 (stereo not given in full) | 0.11
N#Cc1nn(C2O[C@H](CO)[C@@H](O)[C@H]2O)c2nc[nH]c(=O)c12 (stereo not given in full) | 0.32
Nc1nn(C2O[C@H](CO)[C@@H](O)[C@H]2O)c2nc[nH]c(=O)c12 (stereo not given in full) | 0.3
Nc1ncnc2c1c(N)nn2C1O[C@H](CO)[C@@H](O)[C@H]1O (stereo not given in full) | 0.45

Tested on: not listed separately
Assay: Toxic level was determined; Non toxic
Assay type: functional
Conditions: not given

SMILES | Toxic level [mM]
O=c1[nH]cnc2c1cnn2[C@@H]1O[C@H](CO)[C@@H](O)[C@H]1O | 5
N#Cc1nn(C2O[C@H](CO)[C@@H](O)[C@H]2O)c2nc[nH]c(=O)c12 (stereo not given in full) | 5
Nc1ncnc2c1c(N)nn2C1O[C@H](CO)[C@@H](O)[C@H]1O (stereo not given in full) | 5

Tested on: P388
Assay: Compound was evaluated for inhibition against P388 lymphoid neoplasm cells
Assay type: functional
Conditions: Mus musculus, read-out: ID50 (the source's name)

SMILES | IC50 [µM]
N#Cc1nn(C2O[C@H](CO)[C@@H](O)[C@H]2O)c2nc[nH]c(=O)c12 (stereo not given in full) | 0.46

Tested on: Vero
Assay: Virus rating was determined by comparing cytopathic effect against vero cells after infection with Vaccinia virus
Assay type: functional, Chlorocebus sabaeus
Conditions: not given

SMILES | Virus rating
Nc1ncnc2c1c(Br)nn2C1O[C@H](CO)[C@@H](O)[C@H]1O (stereo not given in full) | 0.1
CSc1nn(C2O[C@H](CO)[C@@H](O)[C@H]2O)c2nc[nH]c(=O)c12 (stereo not given in full) | 0
N#Cc1nn(C2O[C@H](CO)[C@@H](O)[C@H]2O)c2nc[nH]c(=O)c12 (stereo not given in full) | 0.55
Nc1nn(C2O[C@H](CO)[C@@H](O)[C@H]2O)c2nc[nH]c(=O)c12 (stereo not given in full) | 0.45
Nc1ncnc2c1c(N)nn2C1O[C@H](CO)[C@@H](O)[C@H]1O (stereo not given in full) | 0.4

Tested on: Vero
Assay: Virus rating was determined by comparing cytopathic effect against vero cells after infection with Vesicular stomatitis virus
Assay type: functional, Chlorocebus sabaeus
Conditions: not given

SMILES | Virus rating
Nc1ncnc2c1c(Br)nn2C1O[C@H](CO)[C@@H](O)[C@H]1O (stereo not given in full) | 0
O=c1[nH]cnc2c1cnn2[C@@H]1O[C@H](CO)[C@@H](O)[C@H]1O | 0.3
N#Cc1nn(C2O[C@H](CO)[C@@H](O)[C@H]2O)c2nc[nH]c(=O)c12 (stereo not given in full) | 0
Nc1nn(C2O[C@H](CO)[C@@H](O)[C@H]2O)c2nc[nH]c(=O)c12 (stereo not given in full) | 0
Nc1ncnc2c1c(N)nn2C1O[C@H](CO)[C@@H](O)[C@H]1O (stereo not given in full) | 0.25

Tested on: Lewis lung carcinoma cell line
Assay: 50% inhibition of the tumor cell growth as compared to the untreated controls against Lewis lung cells; Inactive
Assay type: functional, cell-based
Conditions: Mus musculus

SMILES | ID50
Nc1nn(C2O[C@H](CO)[C@@H](O)[C@H]2O)c2nc[nH]c(=O)c12 (stereo not given in full) | inactive

Tested on: Lewis lung carcinoma cell line
Assay: 50% inhibition of the tumor cell growth as compared to the untreated controls against Lewis lung cells
Assay type: functional
Conditions: Mus musculus, read-out: ID50 (the source's name)

SMILES | IC50 [µM]
N#Cc1nn(C2O[C@H](CO)[C@@H](O)[C@H]2O)c2nc[nH]c(=O)c12 (stereo not given in full) | 250

Tested on: L1210
Assay: Compound was evaluated for inhibition against L1210 leukemia cells
Assay type: functional
Conditions: Mus musculus, read-out: ID50 (the source's name)

SMILES | IC50 [µM]
N#Cc1nn(C2O[C@H](CO)[C@@H](O)[C@H]2O)c2nc[nH]c(=O)c12 (stereo not given in full) | 0.2

Tested on: B16
Assay: 50% inhibition of the tumor cell growth as compared to the untreated controls against B16 melanoma cells
Assay type: functional
Conditions: Mus musculus, read-out: ID50 (the source's name)

SMILES | IC50 [µM]
N#Cc1nn(C2O[C@H](CO)[C@@H](O)[C@H]2O)c2nc[nH]c(=O)c12 (stereo not given in full) | 7

Tested on: P388
Assay: Percent inhibition at a concentration 10 E -4 against P388 lymphoid neoplasm cells
Assay type: functional, Mus musculus
Conditions: not given

SMILES | Inhibition [%]
O=c1[nH]cnc2c1c(Br)nn2C1O[C@H](CO)[C@@H](O)[C@H]1O (stereo not given in full) | 28
CSc1nn(C2O[C@H](CO)[C@@H](O)[C@H]2O)c2nc[nH]c(=O)c12 (stereo not given in full) | 16

Source: ChEMBL document CHEMBL1122763, “Synthesis and biological activity of certain 3,4-disubstituted pyrazolo[3,4-d]pyrimidine nucleosides” (J Med Chem, 1984)
